Series [1] has as its target T1, human cloned 5-HT1A receptors (Homo sapiens, UniProt P08908).
T1 construct: purchased NEN (manufactured by Biosignal, Inc., Montreal, Canada); host or cells: CHO cells
T1 sequence (P08908 1-422): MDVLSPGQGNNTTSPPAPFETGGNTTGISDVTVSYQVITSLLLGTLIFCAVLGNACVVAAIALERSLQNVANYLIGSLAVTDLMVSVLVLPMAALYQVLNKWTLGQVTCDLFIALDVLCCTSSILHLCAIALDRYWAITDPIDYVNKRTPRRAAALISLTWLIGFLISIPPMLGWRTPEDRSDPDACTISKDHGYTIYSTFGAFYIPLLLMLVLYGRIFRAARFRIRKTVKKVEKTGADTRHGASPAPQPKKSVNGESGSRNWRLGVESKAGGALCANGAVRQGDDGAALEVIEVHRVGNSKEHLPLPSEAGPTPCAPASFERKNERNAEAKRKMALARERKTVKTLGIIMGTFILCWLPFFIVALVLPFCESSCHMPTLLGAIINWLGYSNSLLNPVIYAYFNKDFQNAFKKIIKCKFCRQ
In words: 5-HT1A Receptor Binding Assay ([3H]8-OH-DPAT, CHO cell membranes). The following applies: 0.25 nM [3H]8-OH-DPAT, 27° C., 1 h; read-out: Receptor Binding (IC50 nM, SEM). The protocol: 5-HT1A binding studies were performed with human cloned receptors expressed in Chinese hamster ovary (CHO) cells using (^3H)8-OH DPAT as the ligand. Membranes from Chinese hamster ovary cells (CHO) expressing cloned 5-HT1A receptors (manufactured for NEN by Biosignal, Inc., Montreal, Canada) were homogenized in approximately 40 volumes of 50 mM Tris pH 7.4 for 5 sec. Drug dilutions were made using a Beckman Biomek 2000 robot (Beckman Instruments, Fullerton, Calif.). Incubations were conducted with membrane prep, test compounds, and 0.25 nM [^3H]8-OH-DPAT (NEN, Boston, Mass.) in the same buffer at 27° C. for 1 h. Assays were terminated by rapid vacuum filtration over Whatman GF/B glass fiber filters pre-soaked in 0.3% polyethyleneimine. Bound radioactivity was measured using liquid scintillation spectrometry. Data were analyzed using non-linear curve fitting programs (Sharif et al., J. Pharmac. Pharmacol. 51:685-694, 1999).
Ligand binding studies can also be run using membrane preparations from calf and rat brain (local source) and human cortex membranes. Specific brain regions were dissected out, homogenized in 10 volumes of 0.32 M sucrose and centrifuged for 10 min at 700×g. […] Ki values were calculated using the Cheng-Prusoff equation (De Vry et al., J. Pharm. Exper. Ther. 284:1082-1094, 1998.)

In a further series the target is T2, 5-HT1A receptors (UniProt P08908).
T2 sequence (P08908 1-422): T1 sequence (P08908 1-422)
In words: 5-HT1A Functional Assay (cAMP inhibition, forskolin-stimulated adenylate cyclase). The following applies: read-out: cAMP Inhibition (EC50).

Series [2] deals with retina (photo-oxidative injury). The series can be described thus: Neuroprotective effects in the acute blue-light damage model in the rat (ERG). Type of series: in vivo, Sprague Dawley rats. The note with it: for A-wave Amplitude Mean / B-wave Amplitude Mean: ERG after 5-day recovery. The protocol: Male Sprague Dawley rats were randomly assigned to vehicle treatment (N=15) or drug treatment (0.5 mg/kg [N=5] or 1 mg/kg [N=15]) experimental groups. Xaliproden hydrochloride or vehicle was administered by intraperitonal (IP) injection at 48, 24, and 0 hours prior to light exposure. Photo-oxidative injury to the retina was induced in dark-adapted rats (24 hours) by a 6-hour blue-light exposure (220 fc). Control rats (N=11) were housed in their home cage under normal cyclic light exposure. Rats were single housed in clear polycarbonate cages during this light exposure.
The electroretinogram (ERG) was recorded after a five day recovery period from dark-adapted anesthetized rats (Ketamine-HCl, 75 mg/Kg; Xylazine, 6 mg/Kg). The eye's electrical response to a flash of light was elicited by viewing a ganzfeld. ERGs to a series of light flashes increasing in intensity were digitized to analyze temporal characteristics of the waveform and determine the response voltage-log intensity (VlogI) relationship. Changes in the ERG a-wave are associated with photoreceptor and retinal pigment epithelium damage while damage to the inner retina is reflected in changes in the ERG b-wave.

[3] abbreviates: 0.5 mg/kg IP at 48, 24, 0 h before 6-hour blue-light exposure.
Setting [4] is: 1.0 mg/kg IP at 48, 24, 0 h before 6-hour blue-light exposure.

pEC50: −log10 of the molar value. Counter-ions that a name gives are not always drawn.

The IC50 is the concentration at which inhibition is half-maximal. As usually defined, the pEC50 is −log10 of the EC50, conventionally taken in molar units. As for `FC(F)(F)c1cccc(C2=CCN(CCc3ccc4ccccc4c3)CC2)c1` [SR-57746A, xaliproden hydrochloride], the IC50 in series [1] was 2.5 nM. For the same molecule, on 5-HT1A receptors, the negative-log EC50 (pEC50) is 8.43. The “A-wave Amplitude Mean” value in series [2] (setting [3]) is listed as 550.5 μV; in series [2] (setting [4]), 460.8 μV. For the same molecule, the “B-wave Amplitude Mean” value in series [2] (setting [3]) was 1361.1 μV; in series [2] (setting [4]), 1169.4 μV. The “Maximum a- and b-wave response amplitudes, % of controls” value in series [2] (0.5 mg/kg, light-exposed rats) stood at 82%. Also, the “Maximum a- and b-wave response amplitudes, % of normal” value in series [2] (1 mg/kg, light-exposed rats) is reported as 70%. Also, the “Protection of retinal function” value in series [2] (0.5 and 1.0 mg/kg, light-exposed rats) was “Significant protection of retinal function”.

Values taken from patent publication US20030119846A1, “Compounds with 5-ht activity useful for controlling visual field loss” (priority 2000, published 2003).
